Laboratory results reported in ChEMBL document CHEMBL6096706, “Discovery of WDR5-MLL1 and HDAC Dual-Target Inhibitors for the Treatment of Acute Myeloid Leukemia” (J Med Chem, 2025).

Experiments:
[1] = test system: MV4-11; experiment: Antiproliferative activity against human MV4-11 cells assessed as growth inhibition at 1 uM measured after 72 hrs by CellTiterGlo assay; type: functional; settings: read-out: GI
[2] = test system: MV4-11; experiment: Antiproliferative activity against human MV4-11 cells assessed as growth inhibition at 0.05 uM measured after 72 hrs in presence of 0.1 uM of vorinostat by CellTiterGlo assay; type: functional; settings: read-out: GI
[3] = test system: MV4-11; experiment: Antiproliferative activity against human MV4-11 cells assessed as growth inhibition at 0.05 uM measured after 72 hrs in presence of 0.2 uM of vorinostat by CellTiterGlo assay; type: functional; settings: read-out: GI
[4] = test system: MV4-11; experiment: Antiproliferative activity against human MV4-11 cells assessed as growth inhibition at 0.1 uM measured after 72 hrs in presence of 0.4 uM of vorinostat by CellTiterGlo assay; type: functional; settings: read-out: GI
[5] = test system: MV4-11; experiment: Antiproliferative activity against human MV4-11 cells assessed as growth inhibition at 0.2 uM measured after 72 hrs in presence of 1 uM of vorinostat by CellTiterGlo assay; type: functional; settings: read-out: GI
[6] = test system: MV4-11; experiment: Antiproliferative activity against human MV4-11 cells assessed as growth inhibition at 0.5 uM measured after 72 hrs in presence of 0.05 uM of vorinostat by CellTiterGlo assay; type: functional; settings: read-out: GI
[7] = test system: MV4-11; experiment: Antiproliferative activity against human MV4-11 cells assessed as growth inhibition at 1 uM measured after 72 hrs in presence of 0.5 uM of vorinostat by CellTiterGlo assay; type: functional; settings: read-out: GI
[8] = test system: MV4-11; experiment: Induction of apoptosis in human MV4-11 cells assessed as viable cells at 200 nmol/L incubated for 72 hrs by Annexin V/PI staining based flow cytometry analysis (reference value: 90.23%); type: functional; settings: Homo sapiens, MV4-11, read-out: Activity
[9] = test system: MV4-11; experiment: Induction of apoptosis in human MV4-11 cells assessed as early apoptotic cells at 200 nmol/L incubated for 72 hrs by Annexin V/PI staining based flow cytometry analysis (reference value: 4.17 %); type: functional
[10] = test system: MV4-11; experiment: Induction of apoptosis in human MV4-11 cells assessed as late apoptotic cells at 200 nmol/L incubated for 72 hrs by Annexin V/PI staining based flow cytometry analysis (reference value: 5.14%); type: functional
[11] = test system: MV4-11; experiment: Induction of apoptosis in human MV4-11 cells assessed as necrotic cells at 200 nmol/L incubated for 72 hrs by Annexin V/PI staining based flow cytometry analysis (reference value: 0.46%); type: functional
[12] = target: Histone deacetylase 1 (Homo sapiens, UniProt Q13547); experiment: Inhibition of HDAC1 (unknown origin) by fluorescence based assay
Histone deacetylase 1, sequence (Q13547 whole entry): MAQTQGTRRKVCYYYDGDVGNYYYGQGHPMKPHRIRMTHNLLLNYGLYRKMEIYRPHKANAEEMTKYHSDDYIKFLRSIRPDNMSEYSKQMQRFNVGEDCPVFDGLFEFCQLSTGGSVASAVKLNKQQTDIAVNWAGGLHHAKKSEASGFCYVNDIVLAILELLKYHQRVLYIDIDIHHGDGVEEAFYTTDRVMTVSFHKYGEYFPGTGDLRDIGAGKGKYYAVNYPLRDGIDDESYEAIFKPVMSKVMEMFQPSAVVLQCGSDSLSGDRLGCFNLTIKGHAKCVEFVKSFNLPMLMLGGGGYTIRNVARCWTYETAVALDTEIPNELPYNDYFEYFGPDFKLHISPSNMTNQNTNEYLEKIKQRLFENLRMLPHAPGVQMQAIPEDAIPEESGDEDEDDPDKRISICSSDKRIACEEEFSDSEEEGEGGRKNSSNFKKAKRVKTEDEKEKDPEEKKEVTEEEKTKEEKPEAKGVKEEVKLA

[13] = target: T1, Protein deacetylase HDAC6 (Homo sapiens, UniProt Q9UBN7); experiment: Inhibition of HDAC6 (unknown origin) by fluorescence based assay
T1 sequence (Q9UBN7 whole entry): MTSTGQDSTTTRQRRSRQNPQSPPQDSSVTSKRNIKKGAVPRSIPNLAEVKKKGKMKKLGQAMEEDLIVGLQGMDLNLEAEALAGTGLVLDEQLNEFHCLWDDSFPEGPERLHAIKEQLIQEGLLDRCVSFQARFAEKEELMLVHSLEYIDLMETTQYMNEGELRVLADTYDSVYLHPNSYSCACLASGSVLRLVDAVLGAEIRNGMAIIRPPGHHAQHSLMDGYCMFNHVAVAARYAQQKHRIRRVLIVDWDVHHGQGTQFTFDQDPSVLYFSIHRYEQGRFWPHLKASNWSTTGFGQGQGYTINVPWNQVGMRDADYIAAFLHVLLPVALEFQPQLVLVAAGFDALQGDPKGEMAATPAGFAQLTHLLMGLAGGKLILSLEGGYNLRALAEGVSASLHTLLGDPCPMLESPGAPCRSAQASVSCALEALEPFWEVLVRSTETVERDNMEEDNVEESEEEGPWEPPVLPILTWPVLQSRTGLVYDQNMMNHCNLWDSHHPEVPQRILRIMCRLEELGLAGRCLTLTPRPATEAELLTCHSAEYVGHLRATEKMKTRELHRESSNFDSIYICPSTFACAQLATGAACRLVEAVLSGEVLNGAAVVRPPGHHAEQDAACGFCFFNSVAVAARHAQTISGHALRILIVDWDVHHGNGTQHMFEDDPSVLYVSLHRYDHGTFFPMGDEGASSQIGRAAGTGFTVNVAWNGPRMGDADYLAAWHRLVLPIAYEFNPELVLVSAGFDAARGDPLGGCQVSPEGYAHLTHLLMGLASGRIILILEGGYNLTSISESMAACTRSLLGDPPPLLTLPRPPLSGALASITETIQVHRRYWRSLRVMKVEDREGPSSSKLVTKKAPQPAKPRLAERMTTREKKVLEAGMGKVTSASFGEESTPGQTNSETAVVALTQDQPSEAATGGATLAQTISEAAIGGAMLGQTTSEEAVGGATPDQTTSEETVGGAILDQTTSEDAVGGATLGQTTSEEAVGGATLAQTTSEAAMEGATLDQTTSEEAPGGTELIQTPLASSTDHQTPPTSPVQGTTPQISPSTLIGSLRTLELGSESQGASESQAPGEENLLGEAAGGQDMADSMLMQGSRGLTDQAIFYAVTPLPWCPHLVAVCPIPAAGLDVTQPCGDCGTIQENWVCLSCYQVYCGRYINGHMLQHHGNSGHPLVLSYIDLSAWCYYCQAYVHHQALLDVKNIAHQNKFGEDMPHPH

[14] = target: Histone deacetylase 2 (Homo sapiens, UniProt Q92769); experiment: Inhibition of HDAC2 (unknown origin) by fluorescence based assay
Histone deacetylase 2, sequence (Q92769 whole entry): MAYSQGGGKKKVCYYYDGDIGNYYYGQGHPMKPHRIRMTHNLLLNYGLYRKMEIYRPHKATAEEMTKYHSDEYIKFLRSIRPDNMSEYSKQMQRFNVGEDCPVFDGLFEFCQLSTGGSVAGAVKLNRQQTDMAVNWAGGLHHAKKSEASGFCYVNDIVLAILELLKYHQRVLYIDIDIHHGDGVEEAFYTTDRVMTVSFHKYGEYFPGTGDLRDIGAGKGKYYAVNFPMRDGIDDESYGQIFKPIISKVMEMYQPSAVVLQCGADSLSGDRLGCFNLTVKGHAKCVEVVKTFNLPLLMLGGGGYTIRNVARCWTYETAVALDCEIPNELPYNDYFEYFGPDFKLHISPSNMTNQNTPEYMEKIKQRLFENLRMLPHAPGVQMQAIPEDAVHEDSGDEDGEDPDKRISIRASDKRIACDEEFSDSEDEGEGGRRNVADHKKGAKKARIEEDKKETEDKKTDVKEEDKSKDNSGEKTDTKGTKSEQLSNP

[15] = target: T2, Histone deacetylase 8 (Homo sapiens, UniProt Q9BY41); experiment: Inhibition of HDAC8 (unknown origin) by fluorescence based assay
T2 sequence (Q9BY41 whole entry): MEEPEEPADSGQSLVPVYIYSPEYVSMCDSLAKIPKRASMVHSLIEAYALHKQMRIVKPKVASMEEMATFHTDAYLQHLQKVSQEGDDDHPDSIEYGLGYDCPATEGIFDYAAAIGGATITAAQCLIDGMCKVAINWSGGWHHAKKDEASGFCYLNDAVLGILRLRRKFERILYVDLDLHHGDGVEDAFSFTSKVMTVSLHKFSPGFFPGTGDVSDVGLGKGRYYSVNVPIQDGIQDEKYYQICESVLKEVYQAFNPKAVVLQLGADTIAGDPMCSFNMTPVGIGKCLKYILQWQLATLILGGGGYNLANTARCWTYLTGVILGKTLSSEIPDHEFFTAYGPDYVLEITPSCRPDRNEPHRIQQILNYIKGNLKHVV

[16] = test system: MV4-11; experiment: Induction of apoptosis in human MV4-11 cells assessed as late apoptotic cells at 100 nmol/L incubated for 72 hrs by Annexin V/PI staining based flow cytometry analysis (reference value: 5.14%); type: functional
[17] = test system: MV4-11; experiment: Antitumor activity against human MV4-11 cells xenografted in mouse assessed as tumor growth inhibition at 20 mg/kg, ip administered daily for 17 days; type: functional; settings: MV4-11, 408 h, time 17 day, read-out: TGI
[18] = Toxicity in mouse implanted in human MV4-11 cells assessed as heart damage at 10 to 30 mg/kg, ip administered daily for 17 days by H and E staining based analysis; type: organism-based; settings: in vivo, 408 h, dose 10-30 mg/kg, time 17 day

Compound	inhibition of growth at 1 µM [1] [%]	inhibition of growth at 0.05 µM [2] [%]	inhibition of growth at 0.05 µM [3] [%]	inhibition of growth at 0.1 µM [4] [%]	inhibition of growth at 0.2 µM [5] [%]	inhibition of growth at 0.5 µM [6] [%]	inhibition of growth at 1 µM [7] [%]	viability at 0.2 µM [8] [%]	Activity [9] [%]	Activity [10] [%]	Activity [11] [%]	IC50 [12] [nM]	IC50 [13] [nM]	IC50 [14] [nM]	IC50 [15] [µM]	Activity [16] [%]	inhibition in vivo at 20 mg/kg [17] [%]	Activity [18]
Cc1c(F)c(N)cc(C(=O)Nc2cc(-c3ccc(C(=O)N4CCOCC4)cc3)ccc2N2CCN(C)CC2)c1Cl	40.7	34.5	46.6	59	88.2	50.1	77.1	88.5	7.36	3.51	0.58	–	–	–	–	–	–	–
Cc1c(F)c(N)cc(C(=O)Nc2cc(-c3ccc(C(=O)NCc4ccc(/C=C/C(=O)NO)cc4)cc3)ccc2N2CCN(C)CC2)c1Cl	–	–	–	–	–	–	–	40.3	53.31	6.01	0.41	400	46	696	5.3	7.14	69	Non-toxic
